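A five-concentration, 48-hour dose response in 96-well plates underlies each endpoint, interpolated linearly between surrounding concentrations. GI50 = concentration required for 50% inhibition of growth. TGI marks complete inhibition of growth.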
Key:
Experiment in all cases: DTP human tumour cell line panel, 48 h
OVCAR-4 ovarian = tested on: OVCAR-4 ovarian
OVCAR-8 ovarian = tested on: OVCAR-8 ovarian
SK-MEL-5 melanoma = tested on: SK-MEL-5 melanoma
NCI-H226 lung = tested on: NCI-H226 lung
SF-295 CNS = tested on: SF-295 CNS
NCI-H522 lung = tested on: NCI-H522 lung
HOP-92 NSCLC = tested on: HOP-92 NSCLC
NCI-H460 lung = tested on: NCI-H460 lung
A549 NSCLC = tested on: A549 NSCLC
PC-3 prostate = tested on: PC-3 prostate
LOX IMVI melanoma = tested on: LOX IMVI melanoma
OVCAR-5 ovarian = tested on: OVCAR-5 ovarian
BT-549 breast = tested on: BT-549 breast
T-47D breast = tested on: T-47D breast
KM12 colon = tested on: KM12 colon
HOP-62 NSCLC = tested on: HOP-62 NSCLC
786-0 renal = tested on: 786-0 renal
HT29 colon = tested on: HT29 colon
TK-10 renal = tested on: TK-10 renal
IGROV1 ovarian = tested on: IGROV1 ovarian
M14 melanoma = tested on: M14 melanoma
COLO 205 colon = tested on: COLO 205 colon
CAKI-1 renal = tested on: CAKI-1 renal
SK-OV-3 ovarian = tested on: SK-OV-3 ovarian
HCC-2998 colon = tested on: HCC-2998 colon
HL-60(TB) leukemia = tested on: HL-60(TB) leukemia
U251 CNS = tested on: U251 CNS
RXF 393 renal = tested on: RXF 393 renal
K-562 leukemia = tested on: K-562 leukemia
SR leukemia = tested on: SR leukemia
UO-31 renal = tested on: UO-31 renal
UACC-62 melanoma = tested on: UACC-62 melanoma
CCRF-CEM leukemia = tested on: CCRF-CEM leukemia
MDA-MB-231 breast = tested on: MDA-MB-231 breast
MDA-MB-435 = tested on: MDA-MB-435
HS 578T breast = tested on: HS 578T breast
SK-MEL-2 melanoma = tested on: SK-MEL-2 melanoma
SW-620 colon = tested on: SW-620 colon
HCT-116 colon = tested on: HCT-116 colon
SK-MEL-28 melanoma = tested on: SK-MEL-28 melanoma
SN12C renal = tested on: SN12C renal
SNB-19 CNS = tested on: SNB-19 CNS
SNB-75 CNS = tested on: SNB-75 CNS
MALME-3M melanoma = tested on: MALME-3M melanoma
SF-268 CNS = tested on: SF-268 CNS
MOLT-4 leukemia = tested on: MOLT-4 leukemia
MDA-MB-468 breast = tested on: MDA-MB-468 breast
OVCAR-3 ovarian = tested on: OVCAR-3 ovarian
HCT-15 colon = tested on: HCT-15 colon
EKVX NSCLC = tested on: EKVX NSCLC
SF-539 CNS = tested on: SF-539 CNS
MCF7 breast = tested on: MCF7 breast
UACC-257 melanoma = tested on: UACC-257 melanoma
DU-145 prostate = tested on: DU-145 prostate
ACHN renal = tested on: ACHN renal
NCI-H23 lung = tested on: NCI-H23 lung
A498 renal = tested on: A498 renal
RPMI-8226 leukemia = tested on: RPMI-8226 leukemia
NCI/ADR-RES ovarian = tested on: NCI/ADR-RES ovarian

SMILES: CCOc1ccccc1[C@H]1C(C(=O)c2ccc(Cl)cc2)C2(N[C@@H]1c1ccccc1)C(=O)Nc1ccc(Cl)cc12 (stereo partly drawn)
- GI50 (OVCAR-4 ovarian): > 18.8 µM
- TGI (OVCAR-4 ovarian): > 18.8 µM
- GI50 (OVCAR-8 ovarian): 18.3 µM
- TGI (OVCAR-8 ovarian): > 18.8 µM
- GI50 (SK-MEL-5 melanoma): > 18.8 µM
- TGI (SK-MEL-5 melanoma): > 18.8 µM
- GI50 (NCI-H226 lung): > 18.8 µM
- TGI (NCI-H226 lung): > 18.8 µM
- GI50 (SF-295 CNS): 7.53 µM
- TGI (SF-295 CNS): > 18.8 µM
- GI50 (NCI-H522 lung): 8.03 µM
- TGI (NCI-H522 lung): > 18.8 µM
- GI50 (HOP-92 NSCLC): 13 µM
- TGI (HOP-92 NSCLC): > 18.8 µM
- GI50 (NCI-H460 lung): 7.56 µM
- TGI (NCI-H460 lung): > 18.8 µM
- GI50 (A549 NSCLC): 8.86 µM
- TGI (A549 NSCLC): > 18.8 µM
- GI50 (PC-3 prostate): 5.51 µM
- TGI (PC-3 prostate): > 18.8 µM
- GI50 (LOX IMVI melanoma): 9.63 µM
- TGI (LOX IMVI melanoma): > 18.8 µM
- GI50 (OVCAR-5 ovarian): > 18.8 µM
- TGI (OVCAR-5 ovarian): > 18.8 µM
- GI50 (BT-549 breast): > 18.8 µM
- TGI (BT-549 breast): > 18.8 µM
- GI50 (T-47D breast): 7.73 µM
- TGI (T-47D breast): > 18.8 µM
- GI50 (KM12 colon): 9.75 µM
- TGI (KM12 colon): > 18.8 µM
- GI50 (HOP-62 NSCLC): > 18.8 µM
- TGI (HOP-62 NSCLC): > 18.8 µM
- GI50 (786-0 renal): > 18.8 µM
- TGI (786-0 renal): > 18.8 µM
- GI50 (HT29 colon): 14.4 µM
- TGI (HT29 colon): > 18.8 µM
- GI50 (TK-10 renal): > 18.8 µM
- TGI (TK-10 renal): > 18.8 µM
- GI50 (IGROV1 ovarian): 7.98 µM
- TGI (IGROV1 ovarian): > 18.8 µM
- GI50 (M14 melanoma): 12.3 µM
- TGI (M14 melanoma): > 18.8 µM
- GI50 (COLO 205 colon): > 18.8 µM
- TGI (COLO 205 colon): > 18.8 µM
- GI50 (CAKI-1 renal): 4.11 µM
- TGI (CAKI-1 renal): > 18.8 µM
- GI50 (SK-OV-3 ovarian): > 18.8 µM
- TGI (SK-OV-3 ovarian): > 18.8 µM
- GI50 (HCC-2998 colon): 6.18 µM
- TGI (HCC-2998 colon): > 18.8 µM
- GI50 (HL-60(TB) leukemia): 12.8 µM
- TGI (HL-60(TB) leukemia): > 18.8 µM
- GI50 (U251 CNS): > 18.8 µM
- TGI (U251 CNS): > 18.8 µM
- GI50 (RXF 393 renal): 16.2 µM
- TGI (RXF 393 renal): > 18.8 µM
- GI50 (K-562 leukemia): 6.2 µM
- TGI (K-562 leukemia): > 18.8 µM
- GI50 (SR leukemia): 5.28 µM
- TGI (SR leukemia): > 18.8 µM
- GI50 (UO-31 renal): 5.3 µM
- TGI (UO-31 renal): > 18.8 µM
- GI50 (UACC-62 melanoma): 3.93 µM
- TGI (UACC-62 melanoma): > 18.8 µM
- GI50 (CCRF-CEM leukemia): 11.4 µM
- TGI (CCRF-CEM leukemia): > 18.8 µM
- GI50 (MDA-MB-231 breast): 15 µM
- TGI (MDA-MB-231 breast): > 18.8 µM
- GI50 (MDA-MB-435): 13.9 µM
- TGI (MDA-MB-435): > 18.8 µM
- GI50 (HS 578T breast): > 18.8 µM
- TGI (HS 578T breast): > 18.8 µM
- GI50 (SK-MEL-2 melanoma): > 18.8 µM
- TGI (SK-MEL-2 melanoma): > 18.8 µM
- GI50 (SW-620 colon): 13.4 µM
- TGI (SW-620 colon): > 18.8 µM
- GI50 (HCT-116 colon): 7.48 µM
- TGI (HCT-116 colon): > 18.8 µM
- GI50 (SK-MEL-28 melanoma): > 18.8 µM
- TGI (SK-MEL-28 melanoma): > 18.8 µM
- GI50 (SN12C renal): 13.8 µM
- TGI (SN12C renal): > 18.8 µM
- GI50 (SNB-19 CNS): > 18.8 µM
- TGI (SNB-19 CNS): > 18.8 µM
- GI50 (SNB-75 CNS): 2.84 µM
- TGI (SNB-75 CNS): > 18.8 µM
- GI50 (MALME-3M melanoma): > 18.8 µM
- TGI (MALME-3M melanoma): > 18.8 µM
- GI50 (SF-268 CNS): 10.5 µM
- TGI (SF-268 CNS): > 18.8 µM
- GI50 (MOLT-4 leukemia): 5.36 µM
- TGI (MOLT-4 leukemia): > 18.8 µM
- GI50 (MDA-MB-468 breast): 4.84 µM
- TGI (MDA-MB-468 breast): > 18.8 µM
- GI50 (OVCAR-3 ovarian): 7.8 µM
- TGI (OVCAR-3 ovarian): > 18.8 µM
- GI50 (HCT-15 colon): 13.8 µM
- TGI (HCT-15 colon): > 18.8 µM
- GI50 (EKVX NSCLC): 18.6 µM
- TGI (EKVX NSCLC): > 18.8 µM
- GI50 (SF-539 CNS): > 18.8 µM
- TGI (SF-539 CNS): > 18.8 µM
- GI50 (MCF7 breast): 6.01 µM
- TGI (MCF7 breast): > 18.8 µM
- GI50 (UACC-257 melanoma): 8.85 µM
- TGI (UACC-257 melanoma): > 18.8 µM
- GI50 (DU-145 prostate): > 18.8 µM
- TGI (DU-145 prostate): > 18.8 µM
- GI50 (ACHN renal): 8.05 µM
- TGI (ACHN renal): > 18.8 µM
- GI50 (NCI-H23 lung): 17.3 µM
- TGI (NCI-H23 lung): > 18.8 µM
- GI50 (A498 renal): > 18.8 µM
- TGI (A498 renal): > 18.8 µM
- GI50 (RPMI-8226 leukemia): 10.6 µM
- TGI (RPMI-8226 leukemia): > 18.8 µM
- GI50 (NCI/ADR-RES ovarian): > 18.8 µM
- TGI (NCI/ADR-RES ovarian): > 18.8 µM

From PubChem BioAssay (NCI)
